Where two headings read alike, the source gives them in different places. Some results are limits rather than exact numbers.

In experiment [1] the target is T1, β-catenin/Tcf4 PPI (Homo sapiens, UniProt P35222).
T1 sequence (P35222 138-686): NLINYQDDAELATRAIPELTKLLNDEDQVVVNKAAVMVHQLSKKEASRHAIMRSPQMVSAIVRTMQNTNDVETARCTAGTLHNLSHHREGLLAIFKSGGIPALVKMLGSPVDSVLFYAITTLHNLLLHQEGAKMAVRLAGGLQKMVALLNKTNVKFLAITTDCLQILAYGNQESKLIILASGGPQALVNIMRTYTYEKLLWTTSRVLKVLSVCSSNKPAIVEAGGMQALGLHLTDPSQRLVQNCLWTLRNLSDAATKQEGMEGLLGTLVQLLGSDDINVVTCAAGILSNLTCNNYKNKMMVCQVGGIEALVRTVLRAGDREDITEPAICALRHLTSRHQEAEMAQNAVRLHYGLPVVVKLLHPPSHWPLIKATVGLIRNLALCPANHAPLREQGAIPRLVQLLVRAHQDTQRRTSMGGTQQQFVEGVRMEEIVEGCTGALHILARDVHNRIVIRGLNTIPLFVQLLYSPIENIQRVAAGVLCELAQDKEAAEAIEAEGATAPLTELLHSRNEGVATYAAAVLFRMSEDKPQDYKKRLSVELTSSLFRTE
Conditions: read-out: Ki ± SD FP; Table 8, resynthesized 18 and derivatives.
From the text: (§3) After β-catenin and fluorescein-Tcf4 form a protein-protein complex, the fluorophore is attached to a high-molecular-weight protein complex (≥60 kDa) and has a low rotational speed when it is excited by plane-polarized light. […] When an inhibitor completely disrupts the β-catenin/fluorescein-Tcf4 PPI, the fluorophore is only attached to Tcf4 (≤6 kDa), and the emitted light after excitation will be largely depolarized due to a high rotational speed of the fluorophore. AlphaScreen is a bead-based assay. […] On laser excitation at 680 nm, the photo sensitizers inside the donor beads convert ambient oxygen to a singlet oxygen state. Only when the donor and acceptor beads are brought within 200 nm can the singlet oxygen molecules diffuse to the acceptor beads, resulting in extensive emission at 570 nm.

For experiment [2], the target named is T1, β-catenin/Tcf4 PPI. In words: biochemical.
From the text: as §3
For experiment [3], the system named is FOPFlash luciferase (reporter with eight mutant Tcf binding sites). The experiment is classed as cell-based, human. As for the experimental part:
(§1) FuGENE 6 (E2962, Promega) in a 96-well plate format was used for the transfection of HEK293 and SW480 cells according to the manufacturer's instructions. […] SW480 cells were co-transfected with 60 ng of the TOPFlash or FOPFlash reporter gene and 40 ng pCMV-RL normalization reporter. Cells were cultured in DMEM and 10% fatal bovine serum at 37° C. for 24 h, and different concentrations of inhibitors were then added. After 24 h, the luciferase reporter activity was measured using the Dual-Glo system (E2940, Promega). Normalized luciferase activity in response to the treatment with the inhibitors was compared with that obtained from the cells treated with DMSO. Experiments were performed in triplicate.

For experiment [4], the system named is cyclin D1, c-myc and β-catenin protein expression in SW480 cells. In words: Western blot analysis. The experiment is classed as cell-based, human. Conditions: SW480, 24 h. As to the method: SW480 cells at 1×10^6 cells/mL were treated with different concentrations of 18 for 24 h. Cell were lysed in a buffer containing 50 mM Tris (pH 7.4), 150 mM NaCl, 1% Nonidet P-40, 0.5% sodium deoxycholate, 0.1% SDS, and protease inhibitors. After centrifugation at 12,000 rpm for 20 min at 4° C., the supernatant was loaded onto an 8% SDS polyacrylamide gel for electrophoretic analysis. Separated proteins were transferred onto nitrocellulose membranes for immunoblot analysis. The antibodies against c-myc (D84C12, Cell Signaling), cyclin D1 (sc-853, Santa Cruz Biotechnology, Inc.), and β-tubulin (sc-55529, Santa Cruz Biotechnology, Inc) were used. IRDye 680LT goat anti-mouse IgG (827-11080, LiCOR) or IRDye 800CW goat anti-rabbit IgG (827-08365, LiCOR) was used as the secondary antibody. The images were detected by the Odyssey Infrared Imaging System (LiCOR). The Western blot bands were quantified by LI-COR Image Studio Lite 4.0. Experiments were performed in duplicate.

Experiment [5] addresses T2, β-catenin/Tcf PPI in SW480 cells (Homo sapiens, UniProt P35222).
T2 construct: endogenous in cells; host or cells: SW480
T2 sequence (P35222 2-781 limits assumed): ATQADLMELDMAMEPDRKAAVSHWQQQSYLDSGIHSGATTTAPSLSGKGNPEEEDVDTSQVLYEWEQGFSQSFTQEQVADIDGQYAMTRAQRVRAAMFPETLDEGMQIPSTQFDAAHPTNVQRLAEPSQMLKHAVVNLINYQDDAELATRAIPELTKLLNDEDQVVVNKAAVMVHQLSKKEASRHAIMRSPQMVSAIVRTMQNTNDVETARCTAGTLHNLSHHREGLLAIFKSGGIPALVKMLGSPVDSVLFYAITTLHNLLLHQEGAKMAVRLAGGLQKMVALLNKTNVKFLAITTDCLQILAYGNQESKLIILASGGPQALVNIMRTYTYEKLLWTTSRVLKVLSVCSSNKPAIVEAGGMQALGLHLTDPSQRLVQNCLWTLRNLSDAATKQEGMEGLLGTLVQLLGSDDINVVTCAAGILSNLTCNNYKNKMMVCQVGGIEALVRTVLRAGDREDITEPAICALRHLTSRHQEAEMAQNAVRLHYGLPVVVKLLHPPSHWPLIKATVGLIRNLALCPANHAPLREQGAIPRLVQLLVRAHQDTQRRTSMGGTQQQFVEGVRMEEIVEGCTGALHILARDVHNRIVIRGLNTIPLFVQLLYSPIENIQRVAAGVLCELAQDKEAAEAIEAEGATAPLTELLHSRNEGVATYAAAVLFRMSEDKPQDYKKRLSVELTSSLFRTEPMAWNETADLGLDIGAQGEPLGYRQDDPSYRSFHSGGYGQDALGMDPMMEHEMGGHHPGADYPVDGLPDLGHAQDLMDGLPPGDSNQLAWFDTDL
In words: Coimmunoprecipitation assay. The experiment is classed as cell-based. Conditions: SW480, 24 h. As for the experimental part: SW480 cells at 1×10^6/mL were treated with different concentrations of 18 for 24 h. Cells were lysed in buffer containing 50 mM Tris, pH 7.4, 150 mM NaCl, 1% Nonidet P-40, 2 mM EDTA, and protease inhibitors. The lysates were preabsorbed to A/G plus agarose (sc-2003, Santa Cruz Biotechnology, Inc.) at 4° C. for 1 h. Preadsorbed lysates were incubated with a specific primary antibody overnight at 4° C. A/G plus agarose was then added to the lysates mixture and incubated for 3 h. The beads were washed 5 times with the lysis buffer at 4° C. The bound protein was eluted by boiling in the SDS sample buffer and loaded onto 8% SDS polyacrylamide gel for electrophoretic analysis. Separated proteins were transferred onto nitrocellulose membranes for immunoblot analysis. The primary antibodies were against fl-catenin (610153, BD Biosciences) and Tcf4 (05-511, Millipore). IRDye 680LT goat anti-mouse IgG (827-11080, LiCOR) was used as the secondary antibody. The images were detected by the Odyssey Infrared Imaging System (LiCOR). Experiments were performed in duplicate.

For experiment [6], the system named is Wnt/β-catenin target genes in SW480 cells.
Method: Total RNAs were extracted with TRIzol (Ser. […] The threshold cycle (CT) values were normalized to that of internal reference GAPDH. The primer pairs for human GAPDH were forward: [NT] and reverse: [NT]; for human HPRT forward: [NT] and reverse: [NT]; for human AXIN2 forward: [NT] and reverse: [NT]; for human c-myc forward: [NT] and reverse: [NT]; and for human cyclin D1 forward: [NT] and reverse: [NT]. Experiments were performed in triplicate.
The test system of experiment [7] is canonical Wnt signaling in colorectal cancer SW480 cells. As to the kind of experiment: TOPFlash luciferase reporter assay, SW480. Type of experiment: cell-based. Conditions: Homo sapiens, SW480, 24 h, read-out: TOPFlash IC50 ± SD SW480. As to the method:
as §1

Experiment [8] concerns SW480 cells. As to the kind of experiment: MTs cell viability assay, SW480. The experiment is classed as cell-based, human. Conditions: Homo sapiens, SW480; MTs cell viability, 72 h; read-out: IC50 ± SD SW480. As to the method: (§2) Colorectal cancer cell lines, SW480, HT29, an HCT116, and human normal cell line HEK293 were seeded in 96-well plates at 4×10^3 cells/well, maintained overnight at 37° C., and incubated with the tested compounds at various concentrations. Cell viability was monitored after 72 h using a freshly prepared mixture of 1 part phenazine methosulfate (PMS, Sigma) solution (0.92 mg/mL) and 19 parts 3-(4,5-dimethylthiazol-2-yl)-5-(3-carboxymethoxyphenyl)-2-(4-sulfophenyl)-2H-tetrazolium (MTs, Promega) solution (2 mg/mL). Cells were incubated in 10 μL of this solution at 37° C. for 3 h, and A490 was measured. […] Experiments were performed in triplicate.

The test system of experiment [9] is HCT116 cells. As to the kind of experiment: MTs cell viability assay, HCT116. Type of experiment: cell-based, human. Particulars: Homo sapiens, HCT-116; MTs cell viability, 72 h; read-out: IC50 ± SD HCT116. As to the method:
as §2

The subject of experiment [10] is HT29 cells. As to the kind of experiment: MTs cell viability assay, HT29. The experiment is classed as cell-based. Conditions: Homo sapiens, HT-29, 72 h, read-out: IC50 ± SD HT29. As for the experimental part: as §2
The target of experiment [11] is T1, β-catenin/Tcf4 PPI. Conditions: Table 3, known inhibitors, footnotes a, b; read-out: Ki + SD FP; cited from earlier work.
For experiment [12], the target named is T3, β-catenin/Tcf4 (Homo sapiens, UniProt P35222).
T3 sequence (P35222 138-686): T1 sequence (P35222 138-686)
Particulars: FP selectivity assay, known inhibitors, footnotes a, b; read-out: Ki ± SD β-catenin/Tcf4; cited from earlier work.

Experiment [13] deals with T4, β-catenin/E-cadherin (Homo sapiens, UniProt P35222).
T4 construct: Wild-type β-catenin and its mutants (residues 138-686) were cloned; 6xHis; made in house; host or cells: E. coli BL21 DE3
T4 sequence (P35222 138-686): T1 sequence (P35222 138-686)
Conditions: FP selectivity assay, known inhibitors, footnotes a, b; read-out: Ki ± SD β-catenin/E-cadherin; cited from earlier work.

The target in experiment [14] is T5, β-catenin/APC-R3 (Homo sapiens, UniProt P35222).
T5 construct: Wild-type β-catenin and its mutants (residues 138-686) were cloned; 6xHis; made in house; host or cells: E. coli BL21 DE3
T5 sequence (P35222 138-686): T1 sequence (P35222 138-686)
Particulars: FP selectivity assay, known inhibitors, footnotes a, b; read-out: Ki ± SD β-catenin/APC-R3; cited from earlier work.

Take `N#CCn1c2ccccc2c2nc3nonc3nc21` [Compound 34, 2-(5H-[1,2,5]Oxadiazolo[3′,4′:5,6]Pyrazino[2,3-B]Indol-5-yl)Acetonitrile]: the Ki in [1] was 240 ± 14 µM; in [2], above 130 µM.

Regarding `Nc1nonc1C(=O)N/N=C1/c2ccccc2-c2nc3nonc3nc21` [Compound 18, (Z)-4-Amino-N′-(9H-Indeno[1,2-B][1,2,5]Oxadiazolo[3,4-E]Pyrazin-9-ylidene)-1,2,5-Oxadiazole-3-Carbohydrazide], in experiment [3] (HEK293 and SW480 (FIG. 7), off-target effects), the “concentrations at which FOPFlash luciferase activity was inhibited” value was at least 5 µM. Besides, in [4], the “expression level of β-catenin” value was “did not reduce”; the “expression of proteins cyclin D1 and c-myc” value was “significantly reduced”. In addition, in experiment [5], the “β-catenin/Tcf PPI in a cellular context” value is “inhibits the β-catenin/Tcf PPI in a dose-dependent manner”. The mRNA expression inhibited entry in [6] (AXIN2, cyclin D1, c-myc, dose of 2 μM, SW480, 24 h) was “More than 50%”. Also, the “expression of house-keeping gene HPRT” value in experiment [6] (SW480) is recorded as “did not affect”. In addition, the “expression of AXIN2, cyclin D1, and c-myc (mRNA)” value in experiment [6] (SW480, dose-dependent) is listed as “down-regulated”.

Broadly, the IC50 is the midpoint of a concentration-inhibition curve. As for `COc1ccc(/C=C2\SC(=S)N(CCCC(=O)O)C2=O)cc1OC` [Compound 9, reference compound], the IC50 in experiment [7] turned out to be 4 ± 0.39 µM; in [8], 240 ± 2.5 µM; in experiment [9], 180 ± 2.9 µM; in experiment [10], 290 ± 2.4 µM. The “FOPFlash luciferase reporter activity” value in experiment [3] (reference inhibitors) is “inhibited”.

For the compound `COC1=C(CC(C)OC(=O)Oc2ccc(O)cc2)C2c3c(c(O)cc(OC)c3-c3c(OC)cc(O)c4c3C2C(CC(C)OC(=O)c2ccccc2)=C(OC)C4=O)C1=O` (stereo not drawn) [Compound 1], the Ki in [11] was 18 ± 2.1 µM; in [12] it was 77 ± 9.3 µM; in [13] it was 38 ± 1.6 µM; in [14], 110 ± 0.58 µM.
